Measurements from patent publication US12551421B2, “N-heptyl-glyceryl ether and synergistically active preservatives” (Evonik Operations GmbH, priority 2020, dated 2026).
Values after ≈ are worked out from the molar mass of the structure shown.

Key:
A. brasiliensis = test: Preservation challenge test in O/W emulsion base #1, log reduction of viable microorganisms by plate count; format: cell-based; conditions: combined with another antimicrobial component in base #1, up to 28 days, FIGS. 1 to 12
S. aureus = test: as above; format: cell-based; conditions: combined with another antimicrobial component in base #1, up to 28 days, FIGS. 12 to 19
Protocol: (§1) An O/W emulsion (base #1) was prepared as follows, and n-heptyl glyceryl ether, further antimicrobial compounds and combinations thereof were added to these bases:
(§2) Processing: • 1. Premix phase A and B separately and heat up to 78° C. • 2. Add phase A1 to A under stirring and wait until everything is dissolved. • 3. Add phase B to A under stirring. (Speed 6, for 30 sec.) Homogenize for 90 sec. using an Ultra Turrax. • 4. Cool down using a water bath • 5. Adjust pH.
(§3) Preparatory to the test, the surface of casein soya bean digest agar for bacteria or Saboraud-dextrose agar without the addition of antibiotics for fungi is inoculated with the recently grown stock culture of each of the specified microorganisms. […]
(§4) To count the viable microorganisms in the inoculated products, the agar medium used for the initial cultivation of the respective microorganism is used. […] At zero hour and at 7, 14 and 28 days 1 ml is removed from the sample and the number of viable microorganisms is determined by plate count. […]
To determine the efficacy of the antimicrobial composition, n-heptyl glyceryl ether, another antimicrobial compound and combinations thereof were incorporated into base as shown above. The antimicrobial activity against S. aureus was then evaluated as described above. […]

C. albicans = test: as above; format: cell-based; conditions: combined with another antimicrobial component in base #1, up to 28 days, FIGS. 20 to 25
Protocol: as §1, §2, §3, §4
To determine the efficacy of the antimicrobial composition, n-heptyl glyceryl ether, another antimicrobial compound and combinations thereof were incorporated into base #1 as shown above. The antimicrobial activity against C. albicans was then evaluated as described above. […]

[1] = Water solubility / critical micelle concentration of n-heptyl-glyceryl ether; format: physicochemical; conditions: water, without component B); read-out: water solubility before micelles are forming
Excerpt: N-heptyl-glyceryl ether has a water solubility of approximately 2 g/l before micelles are forming.

| Structure (SMILES) | synergistic antimicrobial effect (log 10 reduction of combination greater than sum of individual components) (A. brasiliensis) | synergistic antimicrobial effect (log 10 reduction of combination greater than sum of individual components) (S. aureus) | synergistic antimicrobial effect (log 10 reduction of combination greater than sum of individual components) (C. albicans) | solubility [1] [µg/mL] |
| --- | --- | --- | --- | --- |
| CCCCC(CC)COCC(O)CO (stereo not shown) [ethylhexyl glycerin, reference compound] | No such synergism | No such synergism | No such synergism |  |
| CCCCCCCOCC(O)CO (stereo not shown) [n-heptyl glyceryl ether] | synergistic antimicrobial effects | synergistic antimicrobial effects | synergistic antimicrobial effects | ~2000 (≈ 10.5 mM) |
